This is an account of results in patent US12721836B2, “Alpha-methyl-L-tryptophan as an orally active drug for treating or preventing metabolic conditions” (Texas Tech University System, priority 2021, dated 2026).

Entries after “also recorded” stand apart in the source; their conditions may differ.

A short description of data set [1]: Body weight in wild type male mice on normal or high-fat diet. Type of data set: in vivo. From the text:
(§1) C57B16 mice and oblob (leptin-deficient) mice were from Jackson Laboratories (Bar Harbor, ME). Slc6a14-null mice (Slc6a14^y/− males and Slc6a14^−/− females) on C57BU/6 background were generated in Applicant's lab and have been used to assess the role of this transporter in breast cancer and colon cancer. Mice had free access to water and diet ad libitum. Age- and gender-matched mice were used in control groups (no treatment). Mice were fed a normal diet (ND) (50 IF/6F 5V5R, Labdiet, St. Louis, MO) or a high-fat diet (HFD; 55% calorie from fat) (TD93075; Teklad diets, Madison, WI). The protocol was approved by the Institutional Animal Care and Use Committee of the Texas Tech University Health Sciences Center, Lubbock, TX, USA (IACUC approval number: 15002 for breeding protocol and 18005 for experimental protocol).
Administration of α-methyltryptophan to wild type mice on a high-fat diet would make the mice gain more weight as we found in Slc6a14-null male mice. The results turned out to be quite the opposite. When exposed to the drug for 1 week (2 mg/ml in drinking water; DL-enantiomeric mixture, α-MT), untreated wild type male mice on a high-fat diet gained weight whereas mice exposed to the drug lost weight (FIG. 1B). Since the deletion of Slc6a14 increased the weight gain whereas administration of α-MT to wild type mice decreased the weight gain, the effect of the drug on the body weight has little to do with its ability to block the transporter.
Next, Applicant examined the effect of α-MLT on the body weight in WT C57BL/6 male mice on a normal diet or a high-fat diet (55% calories from fat). The drug was given in drinking water (1 mg/ml). Both with the normal diet and the high-fat diet, mice gained weight when not treated with α-MLT (FIGS. 2A-B). […] This weight-reducing effect was evident with both diets.
(§2) When the drug was withdrawn, mice began to gain weight (FIG. 2B). At 4-weeks of drug exposure, circulating levels of glucose and leptin were measured. Blood glucose was higher in control (i.e., untreated) mice on the high-fat diet than in those on the normal diet (FIGS. 2C-2D). The same was true with leptin levels, which correspond to fat content (FIGS. 2C-2D).

The nature of data set [2]: Body weight in Slc6a14-null male mice on high-fat diet (D- vs L-isomer). Type of data set: in vivo. The note with it: Slc6a14-null male mice on HFD; 1 mg/ml in drinking water, one week.
Text: as §1
Next, Applicant aimed to determine which isomer in the enantiomeric mixture of α-methyltryptophan elicited a weight-reducing effect. For this, Applicant used the Slc6a14-null male mice on a high-fat diet as a model of obesity. Applicant selected this mouse model of obesity for initial experiments because the weight-reducing effect of α-MT is independent of what the drug does to the transport function of Slc6a14.
Applicant administered the D- and L-isomers separately to these mice on a high-fat diet at a dose of 1 mg/ml in drinking water for one week. […]

Data set [3] can be described thus: Liver and abdominal fat pad weight in wild type mice on high-fat diet. The class given is in vivo. The note with it: WT male mice on HFD; 1 mg/ml in drinking water. The protocol:
(§3) Applicant then performed glucose-tolerance test in control and α-MLT-treated (2-week treatment; 1 mg/ml in drinking water) mice which were fed the high-fat diet for 12 weeks. […] At the end of the experiment, mice were killed, and liver and abdominal fat pad were excised and weighed. Treatment with α-MLT reduced the weight of the liver and the abdominal fat (FIGS. 3C-D).

The nature of data set [4]: Body weight and other parameters in wild type female mice. The class given is in vivo. Particulars: 1 mg/ml in drinking water, 2 weeks. The protocol: The experiments described above were done with male mice. To see if α-MLT elicits a similar weight-loss effect in female mice, wild type female mice were exposed to α-MLT (1 mg/ml in drinking water) at 3 months of age. The untreated mice gained weight and α-MLT-exposed mice lost weight (FIG. 4A). At end of 2 weeks treatment, mice were killed and mammary fat pad and liver were excised and weighed. The weights of both tissues decreased in the treated mice (FIGS. 4B-C).

A short description of data set [5]: Serum metabolic panel (lipid profile, kidney and liver function) in wild type mice on high-fat diet. The class given is in vivo. Particulars: WT mice on HFD, 1 mg/ml in drinking water, 4 weeks. The protocol: At the end of the experiment, mice were fasted for 4 h, and blood was collected via orbital sinus using local anesthesia proparacaine. Serum was prepared by centrifugation of the clotted blood, and used for metabolic panel. This was done at our Laboratory Animal Resources Center.
Applicant evaluated the serum profile for metabolites and enzymes to assess the impact of α-MLT (4 weeks treatment; 1 mg/ml in drinking water) in normal mice which were on the high-fat diet for three months prior to initiation of the drug treatment. These tests were designed to assess the function of the kidneys and liver.

The nature of data set [6]: Circulating glucose and leptin in wild type male mice. Type of data set: in vivo. Particulars: WT male mice, ND or HFD (independent of diet); 4 weeks, 1 mg/ml in drinking water; 4-h fasting. As for the experimental part: Animals were fasted for 4 h and blood was collected as described above. Blood samples were centrifuged at 1500×g for 20 min and the serum samples were collected and kept at −80° C. until analyzed. Leptin was measured using the mouse/rat Quantikine ELISA kit (MOB00B, R & D Systems, MN).
as §2, §3

For data set [7] the following is noted: rats; orally 150 mg/kg per day; cited from earlier work.
A short description of data set [8]: Hepatic steatosis (Oil-red-O staining) in wild type mice on high-fat diet. Type of data set: in vivo. Particulars: WT mice on HFD 14 weeks; treatment during last two weeks. As for the experimental part: Liver tissue was excised and weighed immediately, snap-frozen in liquid nitrogen, and stored at −80° C. For Oil-red-O (ORO) staining, tissues were OCT embedded, frozen at −20° C., and cut, followed by staining. Slides made from formalin-fixed, paraffin-embedded liver blocks were stained with hematoxylin and eosin (H & E).
Wild type mice developed fatty liver when fed a high-fat diet for 14 weeks as evident from Oil-red-O staining of the liver sections for neutral lipids (FIG. 3E). […] In this experiment, mice were fed the high-fat diet for 12-weeks, after which the mice were divided into two groups, one with no α-MLT exposure and the other with α-MLT administration. The drug treatment was continued for two additional weeks, and all through the experiment, both groups were continuously fed the same high-fat diet.

The nature of data set [9]: Intraperitoneal glucose tolerance test in wild type mice on high-fat diet. Type of data set: in vivo. The note with it: WT mice fed HFD 12 weeks; 2-week treatment, 1 mg/ml in drinking water. As for the experimental part:
(§4) Intraperitoneal GTT was done in mice fasted for 4 h. Blood glucose was determined using the TRUE track blood glucose monitor (Trividia Health Inc, Fort Lauderdale, FL) at 0, 15, 30, 60, 90 and 120 min after i.p. injection of glucose (2 g/kg body weight).
as §3

Data set [10] is described as follows: Body weight, food intake, glucose and glucose tolerance in oblob mice on normal diet. The class given is in vivo. The protocol:
as §4
oblob mice are deficient in leptin and therefore obese even on a normal diet. […] Applicant used 12-week-old male oblob mice to evaluate the weight-reducing effect of α-MLT (1 mg/ml in drinking water). There was a gradual weight gain on a normal diet in control mice without the drug (FIG. 5A). In contrast, mice exposed to α-MLT lost weight. At the end of 3-week drug exposure, the reversibility of α-MLT effect was evaluated by withdrawing the drug. […] At the end of the three-week treatment with α-MLT, mice were killed and the weights of the liver and abdominal fat pad were determined.
Applicant also monitored food intake, blood glucose, and glucose tolerance in control mice and α-MLT-treated mice.

Setting [11] is: oblob male mice on normal diet, 1 mg/ml in drinking water, three weeks.
Where [12] appears, read: oblob mice on normal diet, three-week treatment.

Consider `CC(N)(Cc1c[nH]c2ccccc12)C(=O)O` (racemic) [α-MT, α-methyl-DL-tryptophan], for which, in [1] (wild type male mice on HFD, 2 mg/ml in drinking water, 1 week), the body weight gain/loss entry is given as “lost weight”.

On to `C[C@@](N)(Cc1c[nH]c2ccccc12)C(=O)O` [α-MDT, α-methyl-D-tryptophan, reference compound], for which the “weight-reducing effect (body weight)” value in data set [2] is recorded as “negligible effect”.

On to `C[C@](N)(Cc1c[nH]c2ccccc12)C(=O)O` [α-MLT, α-methyl-L-tryptophan], for which, in data set [3], the “weight of the abdominal fat” value is given as “reduced” and the “weight of the liver” value is given as “reduced”. Besides, in data set [4], the blood glucose level result is “decreased”, the body weight entry is “lost weight”, the liver weight entry is “decreased” and the “mammary fat pad weight” value is reported as “decreased”. Further, the serum leptin level entry in data set [4] was “decreased”. Also, in data set [1] (1 mg/ml in drinking water), the “onset of weight-reducing effect” value is “within a day”. For the same molecule, the body weight entry in data set [1] (WT C57BL/6 male mice on normal diet or high-fat diet (both diets), 1 mg/ml in drinking water) is “decrease in body weight”. In addition, the “reversibility of effect on body weight” value in [1] (upon withdrawal of the drug) was “reversible”. In addition, in data set [5], the “kidney function (blood urea nitrogen, creatinine)” value is on record as “no evidence of compromise in kidney function” and the “liver function (bilirubin, AST)” value was “no compromise in liver function”. In [5] (mean ± S.E.M, N=5), this molecule gave an AST of 79.5 ± 16.3 U/I, an Albumin of 1.90 ± 0.04 g/dL, a BUN of 34.2 ± 2.6 mg/dL and a Creatinine of 0.30 ± 0.04 mg/dL. Also, in data set [5] (mean ± S.E.M, N=5), the Globulin worked out at 2.35 ± 0.09 g/dL, the Total bilirubin is 0.6 ± 0.1 mg/dL, the Total protein worked out at 4.25 ± 0.06 g/dL and the “serum Cholesterol” value was 106 ± 3 mg/dL. Besides, the “serum Triglycerides” value in data set [5] (mean ± S.E.M, N=5) was 97 ± 17 mg/dL. Moreover, in data set [6], the “circulating level of glucose” value was “significant decrease” and the “circulating level of leptin” value was “significant decrease”. For the same molecule, the adverse effects result in data set [7] is reported as “no noticeable adverse effects”. The “hepatic steatosis (Oil-red-O neutral lipids)” value in data set [8] is reported as “almost completely prevented”. The “glucose tolerance (i.p. GTT)” value in data set [9] is listed as “better glucose tolerance”. In [2], the “weight-reducing effect (body weight)” value was “active as a weight-reducing agent”. In addition, the body weight entry in [10] (12-week-old male oblob mice on normal diet, 1 mg/ml in drinking water, 3 weeks) is given as “lost weight; also recorded: decreased”. For the same molecule, the food intake result in [10] (oblob male mice on normal diet, 1 mg/ml in drinking water) is given as “decreased food intake”. In data set [10] (setting [11]), the blood glucose entry is on record as “lower” and the “insulin sensitivity (glucose tolerance test)” value is reported as “improved insulin sensitivity”. In addition, in data set [10] (setting [12]), the abdominal fat entry was “significantly reduced” and the liver weight result is on record as “significantly reduced”. Besides, the “reversibility of effect on body weight” value in data set [10] (oblob mice, drug withdrawn after 3-week exposure) is on record as “started gaining weight”.
